According to patent US20250032651A1, “[177LU] LUTETIUM-PSMA I&T COMPOSITION AND DOSIMETRY, KIT, METHOD OF MAKING, AND METHOD OF USING THEREOF” (Curium US LLC, priority 2022, published 2025):
Values joined by “and” are separate entries in the source; they are usually repeats but may differ in a detail not shown here. Equal entries are not always repeated.

Test: Batch release QC / patient dose batch data
Format: physicochemical
Conditions: patient dose batches
Protocol: In another embodiment, the radioactivity is measured in a dose calibrator. The radioactive amount of [^177Lu]Lu-PSMA I&T is determined when the dose is dispensed.
In one embodiment, bacterial endotoxin content is determined for each batch before release using a PTS-tester (Ph Eur method D) and sterility is determined according to Ph Eur.
The specifications listed were used as release parameters except for sterility testing. Sterility was tested on all batches post-release.

SMILES: O=C([O-])CC[C@H](NC(=O)N[C@@H](CCCCNC(=O)CCCCCCC(=O)NCCCC[C@@H](NC(=O)[C@@H](Cc1ccccc1)NC(=O)[C@@H](Cc1ccc(O)c(I)c1)NC(=O)CC[C@H](C(=O)[O-])N1CCN(CC(=O)[O-])CCN(CC(=O)[O-])CCN(CC(=O)[O-])CC1)C(=O)[O-])C(=O)[O-])C(=O)[O-].[177Lu+3].[H+].[H+].[H+].[H+].[H+] [Lu-177 PSMA I&T]
- Measured PSMA Sum: 5.0 µg/mL
- Theoretical PSMA Sum: 5.9 µg/mL and 6.4 µg/mL
